Measured values as given in paper PMC10539439 (Pharmacological Reports, 2023).
Where “and” joins values, the source holds several entries; their conditions need not be identical. Identical values can stand only once. Like-named read-outs stand apart in the source and are kept apart here.

Legend:
[1] = Pharmacokinetics in plasma after ip administration; assay type: in vivo, rat; details: plasma; for concentration in plasma (single sample): individual samples 1-3
Experimental: (§1) For the pharmacokinetic study, a group of 56 adult male rats (Wistar, 220–250 g, […]) were used in the experiment. Animals were purchased from the Animal House of the Faculty of Pharmacy of Jagiellonian University Medical College, Krakow, Poland. During the habituation period, the groups of 4 rats were kept in a plastic cage at a controlled room temperature (22 ± 2 ℃), humidity (55 ± 10%), full-spectrum cold white light (350–400 lx), in 12 h light/dark cycles (the lights on at 7:00 am, and off at 19:00 pm), and had free access to standard laboratory pellet and tap water. […] These were then given through an intraperitoneally injections (ip) at a dose of 0.3 mg/kg and 0.4 mg/kg, respectively. Blood samples were collected at 0 min (predose), 5 min, 15 min, 30 min, 60 min, 120 min, and 240 min after compound administration. Blood and brain samples were collected under general anesthesia induced by ip injections of 50 mg/kg ketamine plus 8 mg/kg xylazine. Blood samples were taken in heparinized tubes and immediately centrifuged at 3500 rpm for 10 min, and plasma was collected. Brain and plasma samples were immediately frozen at – 80 ℃ for LC/MS/MS analysis. All experimental procedures were carried out according to EU Directive 2010/63/EU and approved by the I Local Ethics Committee for Animal Experiments of the Jagiellonian University in Krakow, Poland (No. 94/2016).
(§2) The pharmacokinetic parameters were calculated using a non-compartmental approach from the average concentration values, using Phoenix WinNonlin software (Certara, Princeton, NJ 08540 USA). The first-order elimination rate constant (λz) was calculated by linear regression of time versus log concentration. Next, the area under the mean plasma and the concentration in the brain versus the time curve (AUC0→t) were estimated using the log-linear trapezoidal rule (Eq. 1), where Cn is the concentration of the last sampling of each compound1 AUC0→t=∑i=1n(Ci+Ci+1)/2·ti+1-ti+Cn/λz.
The area under the first-moment curve (AUMC0→t) was estimated by calculating of the total area under the first-moment curve using Eq. 2, where tn is the time of last sampling2 AUMC0→t=∑i=1n(ti·Ci+ti+1·Ci+1)/2·ti+1-ti+(tn·Cn)/λz+Cn/λz2.
Mean residence time (MRT, Eq. 3) was calculated as3 MRT=AUMC0→t/AUC0→t.
Total clearance (ClT, Eq. 4) was calculated as4 C1T=F·Di.p./AUC0→t.
(§3) The quantification of compounds in plasma and brain samples was performed using the Sciex API 3200 triple quadrupole mass spectrometer (Concord, Ontario, Canada) equipped with an electrospray (ESI) ionization interface. This instrument was coupled to an Elite LaChrom (Hitachi, USA) HPLC system. Data acquisition and processing were performed using Sciex Analyst 1.5.2 data collection and integration software. After preparation, the samples were injected (20 µL) onto XBridge C18 (2.1 mm × 30 mm, 3.5 μm, Waters, Milford, Massachusetts, USA) analytical column. The mobile phase consisted of 0.1% formic acid in acetonitrile (A) and 0.1% formic acid in water (B) was delivered in a gradient elution starting with 90% of eluent B, increasing for 2 min to 90% of eluent A, maintained for 3 min, and then returned for 5 min to 90% of eluent B, and maintained 90% of eluent B during 5 min at a flow rate of 300 µL/min. The total analysis time was 10 min. […] The ion spray source settings were as follows: spray voltage: 5.5 kV, heater temperature: 400 °C, curtain gas: 10 psi, source gas 1: 20 psi, and source gas 2: 20 psi.
Further dilutions were performed using the same solvent to prepare working standard solutions of the analyte at the following concentrations: 0.025, 0.05, 0.1, 0.25, 0.5, 1.0, 2.5, 5.0, 10, 25, and 50 µg/mL for calibration curve samples (CC) and 0.025, 0.075, 2.2, and 4.5 µg/mL for quality control samples (QC). […]

[2] = Distribution in brain after ip administration; assay type: in vivo, rat; details: brain; for concentration in brain (single sample): individual samples 1-3
Experimental: as §1, with “Poland.” for “Poland. During the habituation period, the groups of 4 rats were kept in a plastic cage at a controlled room temperature (22 ± 2 ℃), humidity (55 ± 10%), full-spectrum cold white light (350–400 lx), in 12 h light/dark cycles (the lights on at 7:00 am, and off at 19:00 pm), and had free access to standard laboratory pellet and tap water.”
as §2, §3
Further dilutions were performed using the same solvent to prepare working standard solutions of the analyte at the following concentrations: 0.025, 0.05, 0.1, 0.25, 0.5, 1.0, 2.5, 5.0, 10, 25, and 50 µg/mL for calibration curve samples (CC) and 0.025, 0.075, 2.2, and 4.5 µg/mL for quality control samples (QC). To prepare samples for calibration curve or quality control samples, 45 µL of the matrix (plasma or brain homogenate) was added with 5 µL of internal standard solution (1 µg/mL) obtaining the final concentration of 100 ng/mL and 5 µL of standard working solutions at the needed CC or QC concentration levels. After the addition of the standard solution, the samples were mixed and purified.
A sample volume of 50 µL of plasma or brain homogenate was transferred to the clean Eppendorf tube and spiked with 5 µL of IS solution (1 µg/mL) obtaining the final concentration of 100 ng/mL. After 5 min of mixing (1500 rpm) proteins were precipitated using 200 µL ACN. After 10 min of sample shaking (1500 rpm), the incubation step was performed (10 min, 4 °C). The samples were then centrifuged (10,000 rpm, 10 min, 4 °C) and the supernatant was transferred to chromatographic vials for LC/MS/MS analysis.

[3] = molecular target: T1, TAAR1 (Homo sapiens, UniProt Q96RJ0); experiment: Intrinsic activity, Hit Hunter cAMP assay; assay type: cell-based
T1 sequence (Q96RJ0 1-339): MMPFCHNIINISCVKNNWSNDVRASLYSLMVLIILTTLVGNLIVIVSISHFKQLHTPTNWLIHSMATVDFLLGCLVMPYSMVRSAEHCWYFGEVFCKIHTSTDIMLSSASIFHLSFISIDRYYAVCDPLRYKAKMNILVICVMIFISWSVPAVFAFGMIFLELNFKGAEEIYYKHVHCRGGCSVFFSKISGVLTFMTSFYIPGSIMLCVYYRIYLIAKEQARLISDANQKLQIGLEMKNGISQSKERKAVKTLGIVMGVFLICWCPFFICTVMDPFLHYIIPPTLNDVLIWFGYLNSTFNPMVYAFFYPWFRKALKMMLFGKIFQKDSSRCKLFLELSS
Experimental: The intrinsic activity study at cells with overexpression of TAAR1 (Eurofins, cat. No. 95-0173C2) was carried out at Eurofins Discoveries (Fremont, USA) using the Hit Hunter cAMP method. This assay monitors the activation of a GPCR via Gi and Gs secondary messenger signaling in a homogenous, non-imaging assay format using a technology developed by DiscoverX called Enzyme Fragment Complementation (EFC) with β-galactosidase (β-Gal) as the functional reporter. The enzyme is split into two complementary portions: EA for Enzyme Acceptor and ED for Enzyme Donor. ED is fused to cAMP and in the assay competes with cAMP generated by cells for binding to a cAMP-specific antibody. Active β-Gal is formed by complementation of exogenous EA to any unbound EDcAMP.
cAMP Hunter cell lines were expanded from freezer stocks according to standard procedures. Cells were seeded in a total volume of 20 µL into white-walled, 384-well microplates and incubated at 37 ℃ for the appropriate time prior to testing. For agonist determination, cells were incubated with a sample to induce a response. Media was aspirated from cells and replaced with 15 µL 2:1 HBSS/10 mM Hepes:cAMP XS + Ab reagent. Intermediate dilution of sample stocks was performed to generate 4X samples in assay buffer. 5 µL of 4 × sample was added to cells and incubated at 37 ℃ or room temperature for 30 or 60 min. Vehicle concentration was 1%. […] Microplates were read following signal generation with a PerkinElmer Envision instrument for chemiluminescent signal detection.

[4] = cAMP, Agonist, Conc(M) 1.00E-07

Cl.N=C(N)N/N=C/c1c(Cl)cc(O)cc1Cl [HGB]
concentration in plasma (single sample) ([1]; 5 min): 41.279 ng/mL and 54.6155 ng/mL and 66.8757 ng/mL
concentration in plasma (mean) ([1]; 5 min after administration): 54.2567 ng/mL
concentration in plasma (single sample) ([1]; 15 min): 105.888 ng/mL and 100.591 ng/mL and 95.109 ng/mL
concentration in plasma (mean) ([1]; 15 min after administration): 100.53 ng/mL
concentration in plasma (single sample) ([1]; 30 min): 16.0042 ng/mL and 23.9125 ng/mL and 20.5783 ng/mL
concentration in plasma (mean) ([1]; 30 min after administration): 20.165 ng/mL
concentration in plasma (single sample) ([1]; 60 min): 44.699 ng/mL and 41.9435 ng/mL and 39.1715 ng/mL
concentration in plasma (mean) ([1]; 60 min after administration): 41.938 ng/mL
concentration in plasma (single sample) ([1]; 120 min): 10.1897 ng/mL and 6.772 ng/mL and 9 ng/mL
concentration in plasma (mean) ([1]; 120 min after administration): 8.6536 ng/mL
concentration in plasma (single sample) ([1]; 240 min): 5.591 ng/mL and 8.595 ng/mL and 5.3874 ng/mL
concentration in plasma (mean) ([1]; 240 min after administration): 6.524 ng/mL
concentration in brain (single sample) ([2]; 5 min): 14.9497 ng/g and 11.5414 ng/g and 13.5496 ng/g
concentration in brain (mean) ([2]; 5 min after administration): 13.3469 ng/g
concentration in brain (single sample) ([2]; 15 min): 59.5505 ng/g and 64.4857 ng/g and 70.3065 ng/g
concentration in brain (mean) ([2]; 15 min after administration): 64.7809 ng/g
concentration in brain (single sample) ([2]; 30 min): 29.8349 ng/g and 23.7225 ng/g and 18.0636 ng/g
concentration in brain (mean) ([2]; 30 min after administration): 23.8737 ng/g
concentration in brain (single sample) ([2]; 60 min): 5.077 ng/g and 3.611 ng/g and 4.9468 ng/g
concentration in brain (mean) ([2]; 60 min after administration): 4.545 ng/g
concentration in brain (single sample) ([2]; 120 min): 3.263 ng/g and 4.746 ng/g and 3.8221 ng/g
concentration in brain (mean) ([2]; 120 min after administration): 3.944 ng/g
concentration in brain (single sample) ([2]; 240 min): 2.689 ng/g and 4.759 ng/g and 2.17 ng/g
concentration in brain (mean) ([2]; 240 min after administration): 3.206 ng/g

Clc1cccc(N2CCNCC2)c1 [mCPP, 1-(3-Chlorophenyl)piperazine]
EC50 [3]: 237 µM
Intrinsic activity at TAAR1 (in words) [3]: weak agonistic activity
Average Value (raw signal) ([3]; cAMP, Agonist, Conc(M) 1e-6): 1440.00
Value 1 / Value 2 (raw signal) ([3]; cAMP, Agonist, Conc(M) 1e-6): 1520 and 1360
Average Value (raw signal) ([3]; cAMP, Agonist, Conc(M) 1e-5): 1660.00
Value 1 / Value 2 (raw signal) ([3]; cAMP, Agonist, Conc(M) 1e-5): 1520 and 1800
Average Value (raw signal) ([3]; cAMP, Agonist, Conc(M) 0.0001): 2760.00
Value 1 / Value 2 (raw signal) ([3]; cAMP, Agonist, Conc(M) 0.0001): 2560 and 2960
Emax at 100 µM ([3]; cAMP, Agonist, Conc(M) 0.0001 (10^–4 M), read-out: % Efficacy (of the full agonist tyramine)): 34%
Average Value (raw signal) [3, 4]: 1260.00
Value 1 / Value 2 (raw signal) [3, 4]: 1440 and 1080

NCCc1ccc(O)cc1 [p-Tyramine]
Curve Bottom ([3]; cAMP, Agonist): -5.337
Curve Top ([3]; cAMP, Agonist): 100.3
Hill ([3]; cAMP, Agonist): 1.0838
Raw Value ([3]; cAMP, Agonist, Conc 0.0254026): 800 and 1040
Raw Value ([3]; cAMP, Agonist, Conc 0.0762079): 1080 and 1160
Percent Efficacy ([3]; cAMP, Agonist, Conc 0.228624): 12.1951 and 16.0976
Raw Value ([3]; cAMP, Agonist, Conc 0.228624): 1640
Percent Efficacy ([3]; cAMP, Agonist, Conc 0.685871): 41.0732 and 48.8781
Raw Value ([3]; cAMP, Agonist, Conc 0.685871): 3120 and 3520
Percent Efficacy ([3]; cAMP, Agonist, Conc 2.05761): 73.0732 and 71.5122
Raw Value ([3]; cAMP, Agonist, Conc 2.05761): 4760 and 4680
Percent Efficacy ([3]; cAMP, Agonist, Conc 6.17284): 84.7805 and 92.5854
Raw Value ([3]; cAMP, Agonist, Conc 6.17284): 5360 and 5760
Percent Efficacy ([3]; cAMP, Agonist, Conc 18.5185): 89.4634 and 99.6098
Raw Value ([3]; cAMP, Agonist, Conc 18.5185): 5600 and 6120
Percent Efficacy ([3]; cAMP, Agonist, Conc 55.5556): 100.39 and 104.293
Raw Value ([3]; cAMP, Agonist, Conc 55.5556): 6160 and 6360
Percent Efficacy ([3]; cAMP, Agonist, Conc 166.667): 105.073 and 97.2683
Raw Value ([3]; cAMP, Agonist, Conc 166.667): 6400 and 6000
Percent Efficacy ([3]; cAMP, Agonist, Conc 500): 107.415 and 90.2439
Raw Value ([3]; cAMP, Agonist, Conc 500): 6520 and 5640
Emax ([3]; cAMP, Agonist, read-out: Max Response): 101%
EC50 ([3]; cAMP, Agonist, read-out: RC50 (Result Type EC50)): 0.802 µM
